Source: article PMC8151276, “An Integrated Approach toward NanoBRET Tracers for Analysis of GPCR Ligand Engagement” (Molecules, 2021)
Values belong to the compound of their own block, whether it stands above or below them.

Columns and labels:
Type in all cases: binding
[1] = biological target: T1, EDNRA (Homo sapiens, UniProt P25101); assay: NanoBRET screen HiBiT-EDNRA in HEK293
T1 construct: purchased Promega (in-house HiBiT-GPCR construct library, NanoBRET)
T1 sequence (P25101 21-427): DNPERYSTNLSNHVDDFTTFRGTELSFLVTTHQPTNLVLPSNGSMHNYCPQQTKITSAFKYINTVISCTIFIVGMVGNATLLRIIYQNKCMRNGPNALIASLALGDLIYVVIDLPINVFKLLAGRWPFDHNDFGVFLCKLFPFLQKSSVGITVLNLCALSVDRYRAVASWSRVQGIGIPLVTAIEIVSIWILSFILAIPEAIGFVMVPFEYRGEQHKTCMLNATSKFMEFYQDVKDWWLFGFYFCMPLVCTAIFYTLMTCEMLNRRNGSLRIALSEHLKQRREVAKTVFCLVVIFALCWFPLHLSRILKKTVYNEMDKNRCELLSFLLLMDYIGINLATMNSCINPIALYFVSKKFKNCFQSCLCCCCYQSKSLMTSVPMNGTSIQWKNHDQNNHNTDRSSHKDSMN
Method: (§1) Each tracer candidate was screened across the entire library of HiBiT-GPCR constructs using NanoBRET as the detection modality. As depicted in Figure 4A, the specificity of interactions was evaluated through decrease in BRET due to competitive displacement of a bound tracer by excess parental compound. Each tracer was analyzed for binding to each HiBiT-GPCR fusion in the absence and in the presence of competing parental compound. Briefly, HEK293 cells were transfected with HiBiT-GPCR constructs diluted into promoterless DNA to reduce expression and maximize translocation to the cell surface. Each tracer candidate was then screened at concentrations of 1 μM and 0.1 μM across cells expressing these fusions. Cells were treated for 1.5 h with tracer either alone or in the presence of 20 μM competing parental compound (i.e., control). BRET was measured upon addition of purified LgBiT and subsequent complementation with HiBiT genetically fused to a GPCR. The specificity of interactions was assessed through a decrease in BRET signal due to competitive displacement of the bound tracer. To further gauge the robustness of these interactions, the fold response over the control (i.e., BRETtracer/BRETcontrol) was calculated. We chose a 1.5-fold response, which translates to ≥7-fold signal over noise as the minimal threshold required to score an interaction as positive. […]. Below we highlight the screening results obtained for our exemplary fluorescent tracers based on Clozapine, Amitriptyline and AZD1283.
(§2) HiBiT-GPCR DNA constructs were diluted in 10 mM Tris pH 8 to a final concentration of 0.01 μg/μL, arrayed in 96-well plates and stored at −20 °C. For transfection, HEK293 cells were suspended in Opti-MEM (without phenol red) supplemented with 2% fetal bovine serum (Seradigm) and 100 units/mL penicillin–streptomycin (Gibco) at a final concentration of 220,000 cells/mL and dispensed into white 96-well plates at 90 μL/well. Subsequent transfections and screens were carried using an Agilent Bravo Automated Liquid Handling Platform. First, the 96-well HiBiT DNA arrays were diluted 25-fold in Opti-MEM (without serum or phenol red) to a final concentration of 0.0004 μg/μL and 20 μL of the diluted DNAs were transferred into new 96-well plates. Next, promoterless carrier DNA (1 μg/μL) was diluted 25-fold (0.04 μg/μL) and then dispensed into the diluted arrays at 20 μL/well. Following brief mixing, Viafect transfection reagent (Promega) diluted 16-fold into Opti-MEM was dispensed into the plates at 40 μL/well. After mixing by pipetting, plates were incubated for 10 min on the pipetting station deck. The DNA-transfection reagent complexes were then added to plates containing cells. To facilitate the screen, 10 μL of DNA-transfection reagent complexes were added in duplicates to the top 4 and bottom 4 rows, resulting in two identical 48-well arrays per plate. Plates with transfected cells were incubated for 18–20 h at 37 °C/5% CO2. A screen of each tracer across the entire library using two different concentrations requires duplicate plates of transfected cells. Depending on the number of tracers being screened, transfections can be scaled up using the same ratios. The next day, for each tracer, four 20× screening solutions in tracer dilution buffer (Promega) were prepared: two duplicates at final concentration of 20 μM and two duplicates at a final concentration of 2 μM. A competing unmodified compound was added to one of each duplicate at a final concentration of 400 μM. The four resulting solutions were diluted 4-fold in Opti-MEM without serum or phenol red to generate 5× solutions (5 µM and 0.5 µM tracer +/− 100 μM competing compound). To screen the library, a BioTek MultiFlo FX liquid dispenser was used to dispense 22.5 µL of tracer solution to the top 4 rows and 22.5 µL tracer + competing compound solution to the 4 bottom rows. Plates were briefly mixed on an orbital shaker and incubated for 1.5 h at room temperature. […]

[2] = biological target: T2, HTR1D (Homo sapiens, UniProt P28221); assay: NanoBRET screen HiBiT-HTR1D in HEK293
T2 construct: purchased Promega (in-house HiBiT-GPCR construct library, NanoBRET)
Method: as §1, §2

[3] = biological target: T3, F2R (Homo sapiens, UniProt P25116); assay: NanoBRET screen HiBiT-F2R in HEK293
T3 construct: purchased Promega (in-house HiBiT-GPCR construct library, NanoBRET)
T3 sequence (P25116 22-425): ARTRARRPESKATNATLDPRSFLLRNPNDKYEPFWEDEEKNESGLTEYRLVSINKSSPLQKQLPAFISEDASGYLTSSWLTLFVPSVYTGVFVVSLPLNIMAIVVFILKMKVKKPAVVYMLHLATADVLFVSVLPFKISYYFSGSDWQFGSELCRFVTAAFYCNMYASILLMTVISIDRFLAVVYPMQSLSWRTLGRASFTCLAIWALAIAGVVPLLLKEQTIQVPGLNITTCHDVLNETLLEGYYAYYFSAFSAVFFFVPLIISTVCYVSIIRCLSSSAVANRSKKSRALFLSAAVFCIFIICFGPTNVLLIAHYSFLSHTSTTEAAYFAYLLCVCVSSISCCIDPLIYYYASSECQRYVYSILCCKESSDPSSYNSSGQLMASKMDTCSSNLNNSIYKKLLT
Method: as §1, §2

[4] = biological target: T4, NPBWR1 (Homo sapiens, UniProt P48145); assay: NanoBRET screen HiBiT-NPBWR1 in HEK293
T4 construct: purchased Promega (in-house HiBiT-GPCR construct library, NanoBRET)
T4 sequence (P48145 1-328): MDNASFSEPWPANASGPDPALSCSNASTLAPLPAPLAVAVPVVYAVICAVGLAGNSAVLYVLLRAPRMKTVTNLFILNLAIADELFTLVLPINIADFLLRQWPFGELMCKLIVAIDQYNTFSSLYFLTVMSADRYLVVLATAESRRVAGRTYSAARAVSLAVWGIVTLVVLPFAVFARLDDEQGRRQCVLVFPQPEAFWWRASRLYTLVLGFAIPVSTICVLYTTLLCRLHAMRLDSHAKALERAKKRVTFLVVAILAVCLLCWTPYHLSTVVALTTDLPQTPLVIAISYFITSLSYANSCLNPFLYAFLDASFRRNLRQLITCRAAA
Method: as §1, §2

[5] = biological target: T5, SSTR2 (Homo sapiens, UniProt P30874); assay: NanoBRET screen HiBiT-SSTR2 in HEK293
T5 construct: purchased Promega (in-house HiBiT-GPCR construct library, NanoBRET)
Method: as §1, §2

[6] = tracer at 0.1μM, listed as amitriptyline-b-2-NB590
[7] = tracer at 1μM, listed as amitriptyline-b-2-NB590

T5 sequence (P30874 whole entry): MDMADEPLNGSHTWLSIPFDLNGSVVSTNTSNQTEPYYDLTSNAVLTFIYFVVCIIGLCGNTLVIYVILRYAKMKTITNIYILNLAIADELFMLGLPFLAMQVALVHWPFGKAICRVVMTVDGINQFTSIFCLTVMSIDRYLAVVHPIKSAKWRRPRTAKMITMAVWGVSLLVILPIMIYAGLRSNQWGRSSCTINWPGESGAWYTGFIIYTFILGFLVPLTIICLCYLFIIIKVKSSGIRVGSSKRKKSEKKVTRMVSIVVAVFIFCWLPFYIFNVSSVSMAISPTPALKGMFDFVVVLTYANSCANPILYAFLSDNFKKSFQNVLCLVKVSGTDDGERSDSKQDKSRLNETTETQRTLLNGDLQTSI
T2 sequence (P28221 whole entry): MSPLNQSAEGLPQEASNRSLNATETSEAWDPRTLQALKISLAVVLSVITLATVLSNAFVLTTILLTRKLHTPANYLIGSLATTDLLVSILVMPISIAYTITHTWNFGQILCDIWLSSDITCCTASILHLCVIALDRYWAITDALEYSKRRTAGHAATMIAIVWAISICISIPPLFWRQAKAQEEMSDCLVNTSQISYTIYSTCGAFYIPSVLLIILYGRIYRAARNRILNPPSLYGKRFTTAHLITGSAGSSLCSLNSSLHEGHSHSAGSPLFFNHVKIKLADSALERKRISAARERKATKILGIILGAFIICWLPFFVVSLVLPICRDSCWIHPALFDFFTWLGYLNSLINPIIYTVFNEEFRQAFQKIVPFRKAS

SMILES: CCOC(=O)c1cc(C#N)c(N2CCC(C(=O)NS(=O)(=O)Cc3ccccc3/C=C/C(=O)NCCNC(=O)CCc3ccc4n3[B-](F)(F)[N+]3=C(c5ccc[nH]5)C=CC3=C4)CC2)nc1C [AZD1283-1-NB590]
- NanoBRET Fold Response ([1]; EDNRA, 0.1μM): 1.01
- NanoBRET Fold Response ([1]; EDNRA, 1μM): 1.02
- NanoBRET Fold Response ([2]; HTR1D, 0.1μM): 0.90
- NanoBRET Fold Response ([2]; HTR1D, 1μM): 0.88
- NanoBRET Fold Response ([3]; F2R, 0.1μM): 1.01
- NanoBRET Fold Response ([3]; F2R, 1μM): 1.01
- NanoBRET Fold Response ([4]; NPBWR1, 0.1μM): 1.02
- NanoBRET Fold Response ([4]; NPBWR1, 1μM): 0.98
- NanoBRET Fold Response ([5]; SSTR2, 0.1μM): 1.02
- NanoBRET Fold Response ([5]; SSTR2, 1μM): 1.09

SMILES: CN(C)CCC=C1c2ccccc2CCc2ccc(C(=O)NCCNC(=O)CCOCCOCCOCCOCCNC(=O)CCc3ccc4n3[B-](F)(F)[N+]3=C(c5ccc[nH]5)C=CC3=C4)cc21 [Amitriptyline-a-2-NB590]
- NanoBRET Fold Response ([1]; tracer at 0.1μM): 0.99
- NanoBRET Fold Response ([1]; tracer at 1μM): 0.99
- NanoBRET Fold Response ([2]; tracer at 0.1μM): 1.09
- NanoBRET Fold Response ([2]; tracer at 1μM): 1.09
- NanoBRET Fold Response ([3]; tracer at 0.1μM): 0.94
- NanoBRET Fold Response ([3]; tracer at 1μM): 0.98
- NanoBRET Fold Response ([5]; tracer at 0.1μM): 1.03
- NanoBRET Fold Response ([5]; tracer at 1μM): 1.03

SMILES: CN(C)CCC=C1c2ccccc2CCc2ccc(C(=O)NCCNC(=O)CCOCCOCCOCCOCCNC(=O)CCc3ccc4n3[B-](F)(F)[N+]3=C(c5ccc[nH]5)C=CC3=C4)cc21 [Amitriptyline-b-2-NB590]
- NanoBRET Fold Response [1, 6]: 1.09
- NanoBRET Fold Response [1, 7]: 0.94
- NanoBRET Fold Response [2, 6]: 1.43
- NanoBRET Fold Response [2, 7]: 0.74
- NanoBRET Fold Response [3, 6]: 0.76
- NanoBRET Fold Response [3, 7]: 0.97
- NanoBRET Fold Response ([4]; tracer at 0.1μM): 1.04
- NanoBRET Fold Response ([4]; tracer at 1μM): 1.03
- NanoBRET Fold Response ([5]; tracer at 1μM): 0.99

Other lines, results leading:

- NanoBRET Fold Response ([2]; HTR1D, other tracers/Aminopotentidine (unmodified), 0.1μM): 1.06
- NanoBRET Fold Response ([2]; HTR1D, other tracers/Aminopotentidine (unmodified), 1μM): 1.50
SMILES: N#CN/C(=N\CCNC(=O)c1ccc(N)cc1)NCCCOc1cccc(CN2CCCCC2)c1 [Aminopotentidine (unmodified)]

- NanoBRET Fold Response ([1]; EDNRA, tracer 0.1μM): 1.03
- NanoBRET Fold Response ([1]; EDNRA, tracer 1μM): 1.04
- NanoBRET Fold Response ([2]; HTR1D, tracer 0.1μM): 1.40
- NanoBRET Fold Response ([2]; HTR1D, tracer 1μM): 1.21
- NanoBRET Fold Response ([3]; F2R, tracer 0.1μM): 1.06
- NanoBRET Fold Response ([3]; F2R, tracer 1μM): 1.00
- NanoBRET Fold Response ([4]; NPBWR1, tracer 0.1μM): 0.94
- NanoBRET Fold Response ([4]; NPBWR1, tracer 1μM): 0.95
- NanoBRET Fold Response ([5]; SSTR2, tracer 0.1μM): 0.98
- NanoBRET Fold Response ([5]; SSTR2, tracer 1μM): 1.02
SMILES: N#CN=C(NCCCOc1cccc(CN2CCCCC2)c1)NCCNC(=O)CCOCCOCCOCCOCCNC(=O)CCc1ccc2n1[B-](F)(F)[N+]1=C(c3ccc[nH]3)C=CC1=C2 [Aminopotentidine-2-NB590]
